Results from patent US8158628B2, “Sulfonylated 1,2,3,4-tetrahydropyrrolo[1,2-a]pyrazine compounds and their use as pharmaceuticals” (Gruenenthal GmbH, priority 2009, dated 2012).

molecular target: T1, B1R of the rat (Rattus norvegicus, UniProt P97583); assay: FLIPR Ca2+ functional assay, B1R antagonism, rat B1R in CHO K1 cells; format: cell-based; conditions: test substance 10 μM; rB1R CHO K1 cells; agonist Des-Arg9 bradykinin at EC80; % of maximum achievable inhibition
T1 construct: expressed in transfected cells; host or cells: CHO K1 cells (Chinese hamster ovary), stably transfected
T1 sequence (P97583 1-337): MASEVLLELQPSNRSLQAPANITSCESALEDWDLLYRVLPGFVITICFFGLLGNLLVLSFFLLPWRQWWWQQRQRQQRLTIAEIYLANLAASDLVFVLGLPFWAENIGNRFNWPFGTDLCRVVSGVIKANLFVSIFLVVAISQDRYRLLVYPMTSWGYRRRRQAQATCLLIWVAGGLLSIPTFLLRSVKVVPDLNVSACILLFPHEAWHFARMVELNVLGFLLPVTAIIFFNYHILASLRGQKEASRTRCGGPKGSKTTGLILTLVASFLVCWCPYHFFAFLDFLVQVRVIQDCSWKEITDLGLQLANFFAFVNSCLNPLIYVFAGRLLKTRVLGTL
Summary of the method: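 Stably transfected CHO K1 cells loaded with Fluo-4; Ca2+ fluorescence read on FLIPR (ex 488/em 540 nm). Compound preincubated 10-20 min, then agonist at EC80: Lys-Des-Arg9 bradykinin (human) or Des-Arg9 bradykinin (rat). % inhibition vs maximal inhibition; IC50 from concentration series, n=2-3, N>=2.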

inhibition at 10 µM [%] | Structure (SMILES)
25.2 | Cc1cccc(Cl)c1S(=O)(=O)N1CCn2cccc2C1CC(=O)N1CCN(c2ncccn2)CC1 (stereo not drawn) [Example 162, 2-[2-[(2-Chloro-6-methyl-phenyl)sulfonyl]-1,2,3,4-tetrahydro-pyrrolo[1,2-a]pyrazin-1-yl]-1-(4-pyrimidin-2-yl-piperazin-1-yl)-ethanone]
29.4 | COc1cc(C)c(S(=O)(=O)N2CCn3cccc3C2CC(=O)N2CCN(Cc3ccccc3F)CC2)c(C)c1 (stereo not drawn) [Example 243, 1-[4-[(2-Fluorophenyl)-methyl]-piperazin-1-yl]-2-[2-[(4-methoxy-2,6-dimethyl-phenyl)sulfonyl]-1,2,3,4-tetrahydro-pyrrolo[1,2-a]pyrazin-1-yl]-ethanone]
-39.1 | Cc1cccc(Cl)c1S(=O)(=O)N1CCn2cccc2C1CC(=O)N1CCN(CCC#N)CC1 (stereo not drawn) [Example 253, 3-[4-[2-[2-[(2-Chloro-6-methyl-phenyl)sulfonyl]-1,2,3,4-tetrahydro-pyrrolo[1,2-a]pyrazin-1-yl]-acetyl]-piperazin-1-yl]-propionitrile]
20.6 | COc1ccc(CN2CCN(C(=O)CC3c4cccn4CCN3S(=O)(=O)c3ccccc3)CC2)cc1 (stereo not drawn) [Example 233, 2-[2-(Benzenesulfonyl)-1,2,3,4-tetrahydro-pyrrolo[1,2-a]pyrazin-1-yl]-1-[4-[(4-methoxyphenyl)-methyl]-piperazin-1-yl]-ethanone]
10.5 | Cc1cccc(Cl)c1S(=O)(=O)N1CCn2cccc2C1CC(=O)N1CCC(N2CCN(C)CC2)CC1 (stereo not drawn) [Example 161, 2-[2-[(2-Chloro-6-methyl-phenyl)sulfonyl]-1,2,3,4-tetrahydro-pyrrolo[1,2-a]pyrazin-1-yl]-1-[4-(4-methyl-piperazin-1-yl)-piperidin-1-yl]-ethanone]
4.54 | Cc1cccc(Cl)c1S(=O)(=O)N1CCn2cccc2C1CC(=O)N(C)C(CN1CCOCC1)c1ccccc1 (stereo not drawn) [Example 259, 2-[2-[(2-Chloro-6-methyl-phenyl)sulfonyl]-1,2,3,4-tetrahydro-pyrrolo[1,2-a]pyrazin-1-yl]-N-methyl-N-(2-morpholin-4-yl-1-phenyl-ethyl)-acetamide]
99.1 | Cc1cccc(Cl)c1S(=O)(=O)N1CCn2cccc2C1CC(=O)NCC1CCN(Cc2ccccc2)C1 (stereo not drawn) [Example 166, N-[(1-Benzyl-pyrrolidin-3-yl)-methyl]-2-[2-[(2-chloro-6-methyl-phenyl)sulfonyl]-1,2,3,4-tetrahydro-pyrrolo[1,2-a]pyrazin-1-yl]-acetamide]
30.7 | O=C(CC1c2cccn2CCN1S(=O)(=O)c1ccc(C(F)(F)F)cc1Cl)N1CCc2ccccc2C1 (stereo not drawn) [Example 20, 2-(2-(2-Chloro-4-(trifluoromethyl)phenylsulfonyl)-1,2,3,4-tetrahydropyrrolo[1,2-a]pyrazin-1-yl)-1-(3,4-dihydroisoquinolin-2(1H)-yl)ethanone]
33.9 | N#Cc1cccnc1N1CCCN(C(=O)CC2c3cccn3CCN2S(=O)(=O)c2ccccc2)CC1 (stereo not drawn) [Example 181, 2-[4-[2-[2-(Benzenesulfonyl)-1,2,3,4-tetrahydro-pyrrolo[1,2-a]pyrazin-1-yl]-acetyl]-[1,4]diazepan-1-yl]-pyridine-3-carbonitrile]
7.57 | CC1CCCC(C)N1CCCNC(=O)CC1c2cccn2CCN1S(=O)(=O)c1ccccc1 (stereo not drawn) [Example 169, 2-[2-(Benzenesulfonyl)-1,2,3,4-tetrahydro-pyrrolo[1,2-a]pyrazin-1-yl]-N-[3-(2,6-dimethyl-piperidin-1-yl)-propyl]-acetamide]
20.8 | O=C(CC1c2cccn2CCN1S(=O)(=O)c1ccccc1)N1CCN(c2ncccn2)CC1 (stereo not drawn) [Example 179, 2-[2-(Benzenesulfonyl)-1,2,3,4-tetrahydro-pyrrolo[1,2-a]pyrazin-1-yl]-1-(4-pyrimidin-2-yl-piperazin-1-yl)-ethanone]
17.9 | O=C(CC1c2cccn2CCN1S(=O)(=O)c1ccccc1)N1CCN(c2ncc(C(F)(F)F)cc2Cl)CC1 (stereo not drawn) [Example 265, 2-[2-(Benzenesulfonyl)-1,2,3,4-tetrahydro-pyrrolo[1,2-a]pyrazin-1-yl]-1-[4-[3-chloro-5-(trifluoromethyl)-pyridin-2-yl]-piperazin-1-yl]-ethanone]
3.48 | Cc1cccc(Cl)c1S(=O)(=O)N1CCn2cccc2C1CC(=O)N1CCC(N2CCOCC2)CC1 (stereo not drawn) [Example 159, 2-[2-[(2-Chloro-6-methyl-phenyl)sulfonyl]-1,2,3,4-tetrahydro-pyrrolo[1,2-a]pyrazin-1-yl]-1-(4-morpholin-4-yl-piperidin-1-yl)-ethanone]
-7.23 | COc1cc(C)c(S(=O)(=O)N2CCn3cccc3C2CC(=O)N2CCCCCC2c2ccc(N(C)C)cc2)c(C)c1 (stereo not drawn) [Example 255, 1-[2-(4-Dimethylaminophenyl)-azepan-1-yl]-2-[2-[(4-methoxy-2,6-dimethyl-phenyl)sulfonyl]-1,2,3,4-tetrahydro-pyrrolo[1,2-a]pyrazin-1-yl]-ethanone]
42.8 | Cc1cccc(Cl)c1S(=O)(=O)N1CCn2cccc2C1CC(=O)N1CCC(N2CCCCC2)CC1 (stereo not drawn) [Example 160, 2-[2-[(2-Chloro-6-methyl-phenyl)sulfonyl]-1,2,3,4-tetrahydro-pyrrolo[1,2-a]pyrazin-1-yl]-1-(4-piperidin-1-yl-piperidin-1-yl)-ethanone]
-37.1 | Cc1cccc(Cl)c1S(=O)(=O)N1CCn2cccc2C1CC(=O)N1CCCCC1Cc1ccncc1 (stereo not drawn) [Example 251, 2-[2-[(2-Chloro-6-methyl-phenyl)sulfonyl]-1,2,3,4-tetrahydro-pyrrolo[1,2-a]pyrazin-1-yl]-1-[2-(pyridin-4-yl-methyl)-piperidin-1-yl]-ethanone]
-12.5 | Cc1cccc(Cl)c1S(=O)(=O)N1CCn2cccc2C1CC(=O)N1CCN(c2ncc(C(F)(F)F)cc2Cl)CC1 (stereo not drawn) [Example 262, 2-[2-[(2-Chloro-6-methyl-phenyl)sulfonyl]-1,2,3,4-tetrahydro-pyrrolo[1,2-a]pyrazin-1-yl]-1-[4-[3-chloro-5-(trifluoromethyl)-pyridin-2-yl]-piperazin-1-yl]-ethanone]
57.7 | COc1cc(C)c(S(=O)(=O)N2CCn3cccc3C2CC(=O)N2CCN(c3ccccc3)CC2)c(C)c1 (stereo not drawn) [Example 145, 2-[2-[(4-Methoxy-2,6-dimethyl-phenyl)sulfonyl]-1,2,3,4-tetrahydro-pyrrolo[1,2-a]pyrazin-1-yl]-1-(4-phenyl-piperazin-1-yl)-ethanone]
18.3 | CCN1CCN(C(=O)CC2c3cccn3CCN2S(=O)(=O)c2cccc(C(F)(F)F)c2)CC1 (stereo not drawn) [Example 187, 1-(4-Ethyl-piperazin-1-yl)-2-[2-[[3-(trifluoromethyl)phenyl]sulfonyl]-1,2,3,4-tetrahydro-pyrrolo[1,2-a]pyrazin-1-yl]-ethanone]
15.8 | Cc1cccc(Cl)c1S(=O)(=O)N1CCn2cccc2C1CC(=O)NCCN1CCCC1 (stereo not drawn) [Example 153, 2-[2-[(2-Chloro-6-methyl-phenyl)sulfonyl]-1,2,3,4-tetrahydro-pyrrolo[1,2-a]pyrazin-1-yl]-N-(2-pyrrolidin-1-yl-ethyl)-acetamide]
50.3 | COc1cc(C)c(S(=O)(=O)N2CCn3cccc3C2CC(=O)N2CCCN(c3ncccc3C#N)CC2)c(C)c1 (stereo not drawn) [Example 150, 2-[4-[2-[2-[(4-Methoxy-2,6-dimethyl-phenyl)sulfonyl]-1,2,3,4-tetrahydro-pyrrolo[1,2-a]pyrazin-1-yl]-acetyl]-[1,4]diazepan-1-yl]-pyridine-3-carbonitrile]
